Source: the NIST ThermoML archive (doi:10.1016/j.fluid.2005.04.021)
± gives the expanded uncertainty stated by the source.

Assay: activity coefficient (dimensionless); of the first substance listed, at infinite dilution; xn = mol fraction of the nth substance listed
Conditions: Liquid, x1 = 0

C1CCCCC1 [cyclohexane] + CCCCCCCCCCCCCC[P+](CCCCCC)(CCCCCC)CCCCCC.FC(F)(F)C(F)(F)[P-](F)(F)(F)(C(F)(F)C(F)(F)F)C(F)(F)C(F)(F)F
activity coefficient (308.15 K): 0.49 ± 0.06
activity coefficient (318.15 K): 0.48 ± 0.05
activity coefficient (328.15 K): 0.44 ± 0.05

C#CCCCC [1-hexyne] + CCCCCCCCCCCCCC[P+](CCCCCC)(CCCCCC)CCCCCC.FC(F)(F)C(F)(F)[P-](F)(F)(F)(C(F)(F)C(F)(F)F)C(F)(F)C(F)(F)F
activity coefficient (308.15 K): 0.42 ± 0.05
activity coefficient (318.15 K): 0.42 ± 0.05
activity coefficient (328.15 K): 0.41 ± 0.05

CCCCCCCC [octane] + CCCCCCCCCCCCCC[P+](CCCCCC)(CCCCCC)CCCCCC.FC(F)(F)C(F)(F)[P-](F)(F)(F)(C(F)(F)C(F)(F)F)C(F)(F)C(F)(F)F
activity coefficient (308.15 K): 0.84 ± 0.06
activity coefficient (318.15 K): 0.8 ± 0.06
activity coefficient (328.15 K): 0.77 ± 0.06

C1CCCC1 [cyclopentane] + CCCCCCCCCCCCCC[P+](CCCCCC)(CCCCCC)CCCCCC.FC(F)(F)C(F)(F)[P-](F)(F)(F)(C(F)(F)C(F)(F)F)C(F)(F)C(F)(F)F
activity coefficient (308.15 K): 0.42 ± 0.05
activity coefficient (318.15 K): 0.42 ± 0.05
activity coefficient (328.15 K): 0.41 ± 0.05

CCCCCCC [heptane] + CCCCCCCCCCCCCC[P+](CCCCCC)(CCCCCC)CCCCCC.FC(F)(F)C(F)(F)[P-](F)(F)(F)(C(F)(F)C(F)(F)F)C(F)(F)C(F)(F)F
activity coefficient (308.15 K): 0.74 ± 0.06
activity coefficient (318.15 K): 0.72 ± 0.06
activity coefficient (328.15 K): 0.7 ± 0.06

CCCO [propan-1-ol] + CCCCCCCCCCCCCC[P+](CCCCCC)(CCCCCC)CCCCCC.FC(F)(F)C(F)(F)[P-](F)(F)(F)(C(F)(F)C(F)(F)F)C(F)(F)C(F)(F)F
activity coefficient (308.15 K): 1.16 ± 0.09
activity coefficient (318.15 K): 1 ± 0.07
activity coefficient (328.15 K): 0.87 ± 0.06

C1CCCCCC1 [cycloheptane] + CCCCCCCCCCCCCC[P+](CCCCCC)(CCCCCC)CCCCCC.FC(F)(F)C(F)(F)[P-](F)(F)(F)(C(F)(F)C(F)(F)F)C(F)(F)C(F)(F)F
activity coefficient (308.15 K): 0.54 ± 0.06
activity coefficient (318.15 K): 0.52 ± 0.06
activity coefficient (328.15 K): 0.49 ± 0.06

CCCCCC [hexane] + CCCCCCCCCCCCCC[P+](CCCCCC)(CCCCCC)CCCCCC.FC(F)(F)C(F)(F)[P-](F)(F)(F)(C(F)(F)C(F)(F)F)C(F)(F)C(F)(F)F
activity coefficient (308.15 K): 0.66 ± 0.06
activity coefficient (318.15 K): 0.64 ± 0.06
activity coefficient (328.15 K): 0.62 ± 0.06

C=CCCCCC [1-heptene] + CCCCCCCCCCCCCC[P+](CCCCCC)(CCCCCC)CCCCCC.FC(F)(F)C(F)(F)[P-](F)(F)(F)(C(F)(F)C(F)(F)F)C(F)(F)C(F)(F)F
activity coefficient (308.15 K): 0.59 ± 0.06
activity coefficient (318.15 K): 0.58 ± 0.06
activity coefficient (328.15 K): 0.57 ± 0.06

CO [methanol] + CCCCCCCCCCCCCC[P+](CCCCCC)(CCCCCC)CCCCCC.FC(F)(F)C(F)(F)[P-](F)(F)(F)(C(F)(F)C(F)(F)F)C(F)(F)C(F)(F)F
activity coefficient (308.15 K): 1.23 ± 0.09
activity coefficient (318.15 K): 1.14 ± 0.08
activity coefficient (328.15 K): 1.01 ± 0.07

c1ccccc1 [benzene] + CCCCCCCCCCCCCC[P+](CCCCCC)(CCCCCC)CCCCCC.FC(F)(F)C(F)(F)[P-](F)(F)(F)(C(F)(F)C(F)(F)F)C(F)(F)C(F)(F)F
activity coefficient (308.15 K): 0.2 ± 0.06
activity coefficient (318.15 K): 0.19 ± 0.06
activity coefficient (328.15 K): 0.19 ± 0.06

C#CCCCCC [1-heptyne] + CCCCCCCCCCCCCC[P+](CCCCCC)(CCCCCC)CCCCCC.FC(F)(F)C(F)(F)[P-](F)(F)(F)(C(F)(F)C(F)(F)F)C(F)(F)C(F)(F)F
activity coefficient (308.15 K): 0.46 ± 0.05
activity coefficient (318.15 K): 0.46 ± 0.05
activity coefficient (328.15 K): 0.45 ± 0.05

C=CCCCC [hex-1-ene] + CCCCCCCCCCCCCC[P+](CCCCCC)(CCCCCC)CCCCCC.FC(F)(F)C(F)(F)[P-](F)(F)(F)(C(F)(F)C(F)(F)F)C(F)(F)C(F)(F)F
activity coefficient (308.15 K): 0.53 ± 0.06
activity coefficient (318.15 K): 0.53 ± 0.06
activity coefficient (328.15 K): 0.52 ± 0.06

CCCCC [pentane] + CCCCCCCCCCCCCC[P+](CCCCCC)(CCCCCC)CCCCCC.FC(F)(F)C(F)(F)[P-](F)(F)(F)(C(F)(F)C(F)(F)F)C(F)(F)C(F)(F)F
activity coefficient (308.15 K): 0.61 ± 0.06
activity coefficient (318.15 K): 0.6 ± 0.06
activity coefficient (328.15 K): 0.59 ± 0.06

CCO [ethanol] + CCCCCCCCCCCCCC[P+](CCCCCC)(CCCCCC)CCCCCC.FC(F)(F)C(F)(F)[P-](F)(F)(F)(C(F)(F)C(F)(F)F)C(F)(F)C(F)(F)F
activity coefficient (308.15 K): 1.2 ± 0.09
activity coefficient (318.15 K): 1.07 ± 0.08
activity coefficient (328.15 K): 0.93 ± 0.07

C=CCCCCCC [oct-1-ene] + CCCCCCCCCCCCCC[P+](CCCCCC)(CCCCCC)CCCCCC.FC(F)(F)C(F)(F)[P-](F)(F)(F)(C(F)(F)C(F)(F)F)C(F)(F)C(F)(F)F
activity coefficient (308.15 K): 0.67 ± 0.06
activity coefficient (318.15 K): 0.65 ± 0.06
activity coefficient (328.15 K): 0.64 ± 0.06

C#CCCCCCC [1-octyne] + CCCCCCCCCCCCCC[P+](CCCCCC)(CCCCCC)CCCCCC.FC(F)(F)C(F)(F)[P-](F)(F)(F)(C(F)(F)C(F)(F)F)C(F)(F)C(F)(F)F
activity coefficient (308.15 K): 0.57 ± 0.06
activity coefficient (318.15 K): 0.52 ± 0.06
activity coefficient (328.15 K): 0.51 ± 0.06
